Read-outs that look alike come from different tables or passages of the source.
Columns and labels:
[1] = biological target: 11beta-HSD1 (Homo sapiens, UniProt P28845); assay: biochemical; conditions: read-out: IC50 Target 11beta-HSD1
Text: (§1) Assay protocols for Cdc25A, 11βHSD1, 11βHSD2, and AChE are described in detain in the publication of Koch M A, Wittenberg L O, Basu S, Jeyaraj D A, Gourzoulidou E, Reinecke K, Odermatt A, Waldmann H (Proc. Natl. Acad. Sci. U.S.A. 2004 Nov. 30; 101(48):16721-6) and in Koch M A et al., Proc. Natl. Acad. Sci. U.S.A. 2005 Nov. 29; 102 (48):17272-7.

[2] = biological target: T1, 11beta-HSD2 (Homo sapiens, UniProt P80365); assay: 11beta-HSD2 inhibition; format: biochemical; conditions: read-out: IC50 Target 11beta-HSD2
T1 sequence (P80365 1-405): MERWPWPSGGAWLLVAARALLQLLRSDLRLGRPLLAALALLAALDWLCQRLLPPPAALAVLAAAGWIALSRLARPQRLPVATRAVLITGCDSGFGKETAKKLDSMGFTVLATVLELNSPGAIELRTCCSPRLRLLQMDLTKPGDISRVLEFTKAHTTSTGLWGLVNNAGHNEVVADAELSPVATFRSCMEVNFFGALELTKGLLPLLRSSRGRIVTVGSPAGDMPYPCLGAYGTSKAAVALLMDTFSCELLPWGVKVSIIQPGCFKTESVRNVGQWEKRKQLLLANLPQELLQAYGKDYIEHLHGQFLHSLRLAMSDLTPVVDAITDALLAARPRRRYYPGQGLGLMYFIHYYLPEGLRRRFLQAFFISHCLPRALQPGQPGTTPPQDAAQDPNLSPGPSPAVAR
Text: as §1

[3] = biological target: T2, Cdc25A (Homo sapiens, UniProt P30304); assay: Cdc25A phosphatase inhibition; format: biochemical; conditions: read-out: IC50 Target Cdc25A
T2 sequence (P30304 1-524): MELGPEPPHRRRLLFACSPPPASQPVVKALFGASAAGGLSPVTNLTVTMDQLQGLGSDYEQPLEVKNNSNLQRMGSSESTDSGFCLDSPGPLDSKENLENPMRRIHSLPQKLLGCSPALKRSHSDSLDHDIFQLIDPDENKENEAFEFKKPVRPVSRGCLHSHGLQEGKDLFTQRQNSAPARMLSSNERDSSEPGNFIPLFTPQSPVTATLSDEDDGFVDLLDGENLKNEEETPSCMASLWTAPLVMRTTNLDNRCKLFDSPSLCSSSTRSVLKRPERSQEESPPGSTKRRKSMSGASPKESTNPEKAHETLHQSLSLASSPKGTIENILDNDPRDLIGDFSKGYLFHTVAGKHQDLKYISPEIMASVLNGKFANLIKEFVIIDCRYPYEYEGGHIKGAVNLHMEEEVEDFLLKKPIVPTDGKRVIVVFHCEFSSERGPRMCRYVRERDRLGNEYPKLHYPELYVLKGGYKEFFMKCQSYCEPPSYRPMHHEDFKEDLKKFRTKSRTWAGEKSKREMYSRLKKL
Text: as §1

[4] = biological target: T3, PTP1B (Homo sapiens, UniProt P18031); assay: PTP1B phosphatase inhibition, general phosphatase assay using para-nitrophenylphosphate; format: biochemical; conditions: read-out: IC50 Target PTP1B
T3 sequence (P18031 1-435): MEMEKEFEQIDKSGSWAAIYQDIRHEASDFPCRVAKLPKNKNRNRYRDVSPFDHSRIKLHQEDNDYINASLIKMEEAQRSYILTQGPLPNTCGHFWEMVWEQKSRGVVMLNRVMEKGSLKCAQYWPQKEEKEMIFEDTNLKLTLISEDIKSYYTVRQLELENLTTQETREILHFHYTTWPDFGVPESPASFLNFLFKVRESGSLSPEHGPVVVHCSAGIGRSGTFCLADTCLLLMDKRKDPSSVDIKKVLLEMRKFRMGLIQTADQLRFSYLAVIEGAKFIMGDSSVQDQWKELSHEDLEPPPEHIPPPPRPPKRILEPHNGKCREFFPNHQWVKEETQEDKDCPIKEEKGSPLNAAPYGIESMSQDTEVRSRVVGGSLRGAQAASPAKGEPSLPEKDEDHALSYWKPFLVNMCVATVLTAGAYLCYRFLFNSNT
Text: (§2) Assays protocols for the other enzymes mentioned herein (MtPTPA, PP1, VHR, PTP1B) are disclosed in Schweizer R A S, Atanasov, G A, Frey B M, and Odermatt A, Mol. Cell. Endocrinol. 2003, 212, 41-49 and Barratte, B., Meijer L., Galaktionov K. & Beach D, Anticancer Res. 1992, 12, 873-880. For determination of the phosphatase activity, a general phosphatase assay using para-nitrophenylphosphate was applied.

[5] = biological target: AChE (Homo sapiens, UniProt P22303); assay: Acetylcholinesterase inhibition; format: biochemical
AChE, sequence (P22303 32-614): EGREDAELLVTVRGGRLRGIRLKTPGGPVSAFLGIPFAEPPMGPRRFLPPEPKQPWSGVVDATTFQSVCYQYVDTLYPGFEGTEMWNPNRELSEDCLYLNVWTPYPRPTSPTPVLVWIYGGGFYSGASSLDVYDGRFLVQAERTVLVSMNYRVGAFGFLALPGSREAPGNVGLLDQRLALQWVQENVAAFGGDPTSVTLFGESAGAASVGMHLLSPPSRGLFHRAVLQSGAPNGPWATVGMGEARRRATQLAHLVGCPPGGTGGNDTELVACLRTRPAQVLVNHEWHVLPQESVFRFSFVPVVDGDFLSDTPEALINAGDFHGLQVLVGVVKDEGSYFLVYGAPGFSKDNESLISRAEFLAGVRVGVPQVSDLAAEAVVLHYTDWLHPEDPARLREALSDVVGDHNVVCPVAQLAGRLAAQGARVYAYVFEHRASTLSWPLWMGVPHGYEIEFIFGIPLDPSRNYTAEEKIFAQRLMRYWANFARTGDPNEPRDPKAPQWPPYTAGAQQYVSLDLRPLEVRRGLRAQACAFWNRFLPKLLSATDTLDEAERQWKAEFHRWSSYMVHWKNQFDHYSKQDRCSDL
Text: as §1

[6] = biological target: MPTPA (Mycobacterium tuberculosis, UniProt P9WIA1); assay: MtPTPA phosphatase inhibition, general phosphatase assay using para-nitrophenylphosphate; format: biochemical
MPTPA, sequence (P9WIA1 whole entry): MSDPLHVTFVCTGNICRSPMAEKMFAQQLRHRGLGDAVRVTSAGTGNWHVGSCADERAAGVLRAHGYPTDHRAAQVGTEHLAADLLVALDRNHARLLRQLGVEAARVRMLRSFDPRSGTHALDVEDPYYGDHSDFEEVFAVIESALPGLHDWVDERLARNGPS
Text: as §2

[7] = biological target: PP1; assay: PP1 phosphatase inhibition, general phosphatase assay using para-nitrophenylphosphate; format: biochemical; conditions: read-out: IC50 Target PP1
Text: as §2

[8] = biological target: VHR (Homo sapiens, UniProt P51452); assay: VHR phosphatase inhibition, general phosphatase assay using para-nitrophenylphosphate; format: biochemical; conditions: read-out: IC50 Target VHR
VHR, sequence (P51452 whole entry, species assumed): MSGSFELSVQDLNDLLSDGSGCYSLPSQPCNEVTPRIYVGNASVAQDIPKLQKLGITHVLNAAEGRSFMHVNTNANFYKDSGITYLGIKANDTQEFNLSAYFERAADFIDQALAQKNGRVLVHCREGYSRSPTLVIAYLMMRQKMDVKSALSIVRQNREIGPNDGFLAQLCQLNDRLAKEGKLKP
Text: as §2

11beta-HSD1, sequence (P28845 whole entry): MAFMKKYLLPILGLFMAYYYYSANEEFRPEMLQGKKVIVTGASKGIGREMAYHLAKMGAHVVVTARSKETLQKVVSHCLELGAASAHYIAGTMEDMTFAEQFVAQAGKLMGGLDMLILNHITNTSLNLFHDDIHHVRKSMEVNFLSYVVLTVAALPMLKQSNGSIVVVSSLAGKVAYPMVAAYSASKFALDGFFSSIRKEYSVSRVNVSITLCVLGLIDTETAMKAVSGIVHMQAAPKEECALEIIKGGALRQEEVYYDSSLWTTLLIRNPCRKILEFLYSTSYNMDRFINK

SMILES	IC50 [1] [µM]	IC50 [2] [µM]	IC50 [3] [µM]	IC50 [4] [µM]	IC50 [5] [µM]	IC50 ([5]; read-out: IC50 Target AChE) [µM]	IC50 [6] [µM]	IC50 [7] [µM]	IC50 [8] [µM]
CCc1cc(OC)ccc1/C=C1\C[C@@]2(C)C(=C(C)C1=O)CCC[C@@H]2O [Compound 15, (3E,4aS,5S)-3-(2-Ethyl-4-methoxybenzyliden)-4,4a,5,6,7,8-hexahydro-5-hydroxy-1,4a-dimethylnaphthalen-2(3H)-one]	< 10	10 to 50	–	–	–	–	–	–	–
C/C=C/C=C1\C[C@@]2(C)C(=C(C)C1=O)CCC[C@@H]2O [Compound 29, (3E,4aS,5S)-3-[(E)-But-2-enyliden]-4,4a,5,6,7,8-hexahydro-5-hydroxy-1,4a-dimethylnaphthalen-2(3H)-one]	< 10	< 10	10 to 50	< 10	< 10	–	–	–	–
CC(=O)Oc1ccc(/C=C2\C[C@@]3(C)C(=C(C)C2=O)CCC[C@@H]3O)cc1 [Compound 31, 4-{(1E)-[(4S,4aS)-1,2,3,4,4a,5-Hexahydro-4-hydroxy-4a,8-dimethyl-7-oxonaphthalen-6(7H)-yliden]methyl}phenylacetat]	< 10	10 to 50	–	10 to 50	–	< 10	–	–	–
CCC/C=C1\C[C@@]2(C)C(=C(C)C1=O)CCC[C@@H]2O [Compound 32, (3E,4aS,5S)-3-Butyliden-4,4a,5,6,7,8-hexahydro-5-hydroxy-1,4a-dimethylnaphthalen-2(3H)-one]	< 10	< 10	10 to 50	10 to 50	< 10	–	< 10	10 to 50	< 10
CC1=C2CC(c3ccccc3)CC(O)C2CCC1=O (stereo not shown) [Compound 167, 5-Hydroxy-1-methyl-7-phenyl-4,4a,5,6,7,8,-hexahydro-3H-naphthalen-2-one]	–	–	–	–	–	< 10	–	–	–
O=C1C(=Cc2ccco2)CCC2CC=CCC12 (stereo not shown) [Compound 403, 2-Furan-2-ylmethylene-3,4,4a,5,8,8a-hexahydro-2H-naphthalen-1-one]	< 10	< 10	–	–	–	–	–	–	–
